Experimental data: ChEMBL document CHEMBL4406790, “Targeted Treatments for Chronic Obstructive Pulmonary Disease (COPD) Using Low-Molecular-Weight Drugs (LMWDs)” (J Med Chem, 2019)
pEC50, pIC50, pKi: −log10 of the molar value. Values belong to the molecule of their own block, whether it stands above or below them.

Columns and labels:
[1] = target: 3',5'-cyclic-AMP phosphodiesterase 4B (Homo sapiens, UniProt Q07343); test: Inhibition of PDE4B2 (unknown origin)
[2] = target: T1, Beta-2 adrenergic receptor (Homo sapiens, UniProt P07550); test: Inhibition of beta2 adrenoceptor (unknown origin)
T1 sequence (P07550 whole entry): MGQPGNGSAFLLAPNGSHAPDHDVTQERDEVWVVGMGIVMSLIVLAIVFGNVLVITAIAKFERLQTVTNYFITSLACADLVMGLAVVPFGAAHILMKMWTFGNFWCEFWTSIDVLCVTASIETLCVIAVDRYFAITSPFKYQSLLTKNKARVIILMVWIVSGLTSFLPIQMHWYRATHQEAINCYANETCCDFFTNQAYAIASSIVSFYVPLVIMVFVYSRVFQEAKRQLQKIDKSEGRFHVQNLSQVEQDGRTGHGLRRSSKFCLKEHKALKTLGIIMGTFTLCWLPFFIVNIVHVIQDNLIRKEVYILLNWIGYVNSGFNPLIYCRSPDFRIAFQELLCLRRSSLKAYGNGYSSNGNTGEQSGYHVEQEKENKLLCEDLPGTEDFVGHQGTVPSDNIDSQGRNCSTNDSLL

[3] = Half life in human; type: ADME
[4] = Oral bioavailability in human; type: ADME, organism-based; details: in vivo
[5] = target: Muscarinic acetylcholine receptor M3 (Homo sapiens, UniProt P20309); test: Antagonist activity at human M3 receptor
Muscarinic acetylcholine receptor M3, sequence (P20309 whole entry): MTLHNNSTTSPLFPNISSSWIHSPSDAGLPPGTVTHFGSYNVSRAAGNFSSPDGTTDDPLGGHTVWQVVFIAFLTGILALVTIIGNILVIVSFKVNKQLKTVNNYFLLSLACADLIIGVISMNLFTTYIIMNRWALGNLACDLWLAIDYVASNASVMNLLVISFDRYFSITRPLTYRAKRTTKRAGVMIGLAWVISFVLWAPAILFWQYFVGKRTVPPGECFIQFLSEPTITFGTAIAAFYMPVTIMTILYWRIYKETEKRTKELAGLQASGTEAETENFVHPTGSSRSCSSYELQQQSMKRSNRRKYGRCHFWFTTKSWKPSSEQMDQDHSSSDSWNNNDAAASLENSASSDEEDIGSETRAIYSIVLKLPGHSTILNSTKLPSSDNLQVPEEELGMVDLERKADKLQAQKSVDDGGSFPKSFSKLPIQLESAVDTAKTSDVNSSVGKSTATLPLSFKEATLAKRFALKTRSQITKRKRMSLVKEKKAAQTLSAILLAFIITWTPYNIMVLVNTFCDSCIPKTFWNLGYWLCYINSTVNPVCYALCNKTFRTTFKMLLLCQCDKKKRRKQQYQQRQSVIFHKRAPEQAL

[6] = target: Voltage-gated inwardly rectifying potassium channel KCNH2 (Homo sapiens, UniProt Q12809); test: Inhibition of human ERG by high throughput automated patch clamp method
Voltage-gated inwardly rectifying potassium channel KCNH2, sequence (Q12809 whole entry): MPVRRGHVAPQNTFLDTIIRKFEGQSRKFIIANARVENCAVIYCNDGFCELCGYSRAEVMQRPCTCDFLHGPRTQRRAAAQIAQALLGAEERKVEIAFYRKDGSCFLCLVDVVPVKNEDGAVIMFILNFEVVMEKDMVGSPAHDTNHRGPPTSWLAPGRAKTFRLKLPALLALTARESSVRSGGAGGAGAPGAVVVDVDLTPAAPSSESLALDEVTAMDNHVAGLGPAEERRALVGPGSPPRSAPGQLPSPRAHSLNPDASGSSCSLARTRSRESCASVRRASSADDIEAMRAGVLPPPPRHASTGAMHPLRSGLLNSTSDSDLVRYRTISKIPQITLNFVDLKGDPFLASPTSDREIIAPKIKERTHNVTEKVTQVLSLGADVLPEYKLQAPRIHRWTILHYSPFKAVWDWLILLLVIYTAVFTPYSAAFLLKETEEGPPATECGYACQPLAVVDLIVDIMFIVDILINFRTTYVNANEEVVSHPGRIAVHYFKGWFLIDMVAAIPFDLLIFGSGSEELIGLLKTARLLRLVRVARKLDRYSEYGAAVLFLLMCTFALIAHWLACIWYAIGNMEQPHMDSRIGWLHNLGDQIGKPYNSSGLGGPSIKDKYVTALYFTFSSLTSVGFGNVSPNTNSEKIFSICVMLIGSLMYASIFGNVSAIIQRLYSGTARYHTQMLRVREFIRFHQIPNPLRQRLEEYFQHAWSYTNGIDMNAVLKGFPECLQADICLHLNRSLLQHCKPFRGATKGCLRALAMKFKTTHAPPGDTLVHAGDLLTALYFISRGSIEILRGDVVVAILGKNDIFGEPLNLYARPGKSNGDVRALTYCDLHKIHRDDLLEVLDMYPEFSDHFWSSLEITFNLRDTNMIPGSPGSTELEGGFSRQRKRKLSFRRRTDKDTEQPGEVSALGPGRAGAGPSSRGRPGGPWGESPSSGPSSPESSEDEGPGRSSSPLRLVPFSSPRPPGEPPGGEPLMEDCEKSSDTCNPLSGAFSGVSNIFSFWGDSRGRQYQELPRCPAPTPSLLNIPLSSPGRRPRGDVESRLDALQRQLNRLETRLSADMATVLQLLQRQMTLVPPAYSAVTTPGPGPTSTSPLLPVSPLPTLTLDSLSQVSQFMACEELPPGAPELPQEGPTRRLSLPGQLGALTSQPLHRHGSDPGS

[7] = target: Macrophage metalloelastase (Homo sapiens, UniProt P39900); test: Inhibition of MMP12 (unknown origin)
Macrophage metalloelastase, sequence (P39900 whole entry): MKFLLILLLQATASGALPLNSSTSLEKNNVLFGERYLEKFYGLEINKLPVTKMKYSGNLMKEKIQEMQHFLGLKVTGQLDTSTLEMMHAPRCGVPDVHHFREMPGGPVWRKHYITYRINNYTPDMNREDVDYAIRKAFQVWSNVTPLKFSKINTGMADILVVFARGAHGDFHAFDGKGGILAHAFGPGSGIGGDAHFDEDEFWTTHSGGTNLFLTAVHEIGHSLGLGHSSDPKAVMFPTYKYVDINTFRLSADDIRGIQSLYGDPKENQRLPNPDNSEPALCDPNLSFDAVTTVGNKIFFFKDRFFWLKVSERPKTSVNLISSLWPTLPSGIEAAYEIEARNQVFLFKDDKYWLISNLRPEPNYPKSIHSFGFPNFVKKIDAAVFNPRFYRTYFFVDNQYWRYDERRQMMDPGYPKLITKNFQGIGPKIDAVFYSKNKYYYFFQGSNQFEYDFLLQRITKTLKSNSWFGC

[8] = target: T1, Beta-2 adrenergic receptor; test: Agonist activity at human beta2 adrenoceptor
[9] = Inhibition of TNFalpha-induced NFkappaB (unknown origin); parameters: species or system Homo sapiens
[10] = target: T2, Muscarinic acetylcholine receptor M2 (Homo sapiens, UniProt P08172); test: Inhibition of M2 receptor (unknown origin)
T2 sequence (P08172 whole entry): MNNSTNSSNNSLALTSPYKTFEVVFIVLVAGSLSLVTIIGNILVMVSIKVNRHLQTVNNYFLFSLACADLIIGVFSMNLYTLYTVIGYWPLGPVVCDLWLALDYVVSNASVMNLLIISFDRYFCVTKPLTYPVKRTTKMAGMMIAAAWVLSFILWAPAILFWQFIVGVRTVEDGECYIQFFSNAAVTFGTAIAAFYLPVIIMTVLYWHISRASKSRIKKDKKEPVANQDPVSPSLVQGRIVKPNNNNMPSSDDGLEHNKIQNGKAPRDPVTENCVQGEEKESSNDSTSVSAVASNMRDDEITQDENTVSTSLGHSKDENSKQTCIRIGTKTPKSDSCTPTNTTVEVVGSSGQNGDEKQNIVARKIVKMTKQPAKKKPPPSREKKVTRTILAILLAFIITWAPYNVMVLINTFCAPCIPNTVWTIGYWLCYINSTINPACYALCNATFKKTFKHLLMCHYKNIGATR

3',5'-cyclic-AMP phosphodiesterase 4B, sequence (Q07343 whole entry): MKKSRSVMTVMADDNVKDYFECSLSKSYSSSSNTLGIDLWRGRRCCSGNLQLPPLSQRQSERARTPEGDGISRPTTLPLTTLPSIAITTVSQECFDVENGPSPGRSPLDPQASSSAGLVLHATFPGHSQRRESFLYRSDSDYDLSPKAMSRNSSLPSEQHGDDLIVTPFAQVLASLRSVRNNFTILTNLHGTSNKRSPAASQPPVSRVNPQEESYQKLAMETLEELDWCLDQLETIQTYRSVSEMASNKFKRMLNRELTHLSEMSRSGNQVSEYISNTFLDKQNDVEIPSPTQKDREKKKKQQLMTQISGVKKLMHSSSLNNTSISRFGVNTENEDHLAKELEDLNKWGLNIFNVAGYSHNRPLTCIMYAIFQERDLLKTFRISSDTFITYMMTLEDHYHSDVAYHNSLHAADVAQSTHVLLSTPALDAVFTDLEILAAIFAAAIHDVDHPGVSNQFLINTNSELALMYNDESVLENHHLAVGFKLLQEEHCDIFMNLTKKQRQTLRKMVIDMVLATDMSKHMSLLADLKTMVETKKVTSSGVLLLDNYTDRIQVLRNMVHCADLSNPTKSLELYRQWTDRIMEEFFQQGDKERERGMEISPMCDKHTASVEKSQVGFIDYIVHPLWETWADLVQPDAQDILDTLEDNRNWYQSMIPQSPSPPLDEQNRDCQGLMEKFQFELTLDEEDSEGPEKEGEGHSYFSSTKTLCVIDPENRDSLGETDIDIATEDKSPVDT

- pIC50 [1]: 8.30
- pIC50 [2]: 7.96
SMILES: COc1cccc(Nc2c(C(N)=O)cnc3c(C)cc(S(=O)(=O)c4cccc(C(=O)Nc5ccc(C#CCCCNC[C@H](O)c6ccc(O)c7[nH]c(=O)ccc67)cc5)c4)cc23)c1

- half-life [3]: 8.5 h
- bioavailability [4]: 63%
SMILES: CC1=C(C#N)[C@@H](c2ccc(C#N)cc2S(C)(=O)=O)N(C)C(=O)N1c1cccc(C(F)(F)F)c1

- pIC50 [5]: 8.80
SMILES: COc1cc(NC(=O)CCN2CCC(OC(=O)Nc3ccccc3-c3ccccc3)CC2)c(Cl)cc1CNC[C@H](O)c1ccc(O)c2[nH]c(=O)ccc12 [BATEFENTEROL]

- half-life [3]: 3.27 h
- bioavailability [4]: 68%
SMILES: CC(C)(O)c1coc(S(=O)(=O)NC(=O)Nc2c3c(cc4c2CCC4)CCC3)c1
- pIC50 [6]: < 4.52

- pIC50 [7]: 9.70
SMILES: COc1ccc(Oc2ccc(S(=O)(=O)c3ccccc3CC(=O)NO)cc2)cc1

SMILES: CN(CCCn1nnc2cc(CNC[C@H](O)c3ccc(O)c4[nH]c(=O)ccc34)ccc21)[C@H]1CC[C@H](OC(=O)C(O)(c2cccs2)c2cccs2)CC1 [NAVAFENTEROL]
- pEC50 [8]: 9.60
- pIC50 [5]: 8.80

- pEC50 [8]: 9.60
- pIC50 [5]: 8.80
SMILES: CC(C)c1ncc(C(=O)N2CCOC3(CCN(Cc4ccc(F)c(CCNC[C@H](O)c5ccc(O)c6[nH]c(=O)sc56)c4)CC3)C2)s1

SMILES: COc1cc(NC(=O)OCCN(C)[C@H]2CC[C@H](OC(=O)C(O)(c3cccs3)c3cccs3)CC2)c(Cl)cc1CNC[C@H](O)c1ccc(O)c2[nH]c(=O)ccc12 [LAS190792]
- pEC50 [8]: 9.60

SMILES: O=C(Nc1cc(C(F)(F)F)cc(C(F)(F)F)c1)c1cc(Cl)ccc1O [IMD-0354]
- pIC50 [9]: 5.92

SMILES: C[N+]12CCC(CC1)C(OCC(O)(c1ccccc1)C1CCCC1)C2 (stereo unspecified) [BENCYCLOQUIDIUM BROMIDE]
- pKi [10]: 8.21
